Patent publication US20170217914A1, “Novel Triarylethylene Compounds and Methods Using Same” (The Penn State Research Foundation, priority 2014, published 2017)
Like-named read-outs stand apart in the source and are kept apart here. Each block holds one compound with its values, some of them ahead of it.

Legend:
[1] = test system: MCF-7 (ER-positive) human breast cancer cell line; experiment: MTT cell viability assay, MCF-7 cells; details: for cytotoxic activity: 72 h, versus Ospemifene and Tamoxifen; for IC50: Homo sapiens; for anticancer activity in initial screening: 0.5-25 μM, 48 h (FIG. 3)
Experimental: (§2) An MTT solution was added to each well and incubated for 3 h at 37° C. After 3 h, DMSO was added and the optical density was measured at 570 nm using a 96-well multiscanner (Dynex Technologies, MRX Revelation; Chantilly, Va., USA). Backgrounds were subtracted at 630 nm. IC50 values were calculated by non-linear regression analysis using Prism software.
(§3) The effects of novel triarylethylene derivatives on the cell viability were determined by the MTT uptake method using previously described methods (Kaur et al., 2014, Eur. J. Med. Chem. 86:211-218). Briefly, 3000 cells were incubated with various concentrations of compounds in triplicate in a 96-well plate for 72 h at 37° C. An MTT solution was added to each well and incubated for 3 h at 37° C. After 3 h, DMSO was added and the optical density was measured at 570 nm using a 96-well multiscanner (Dynex Technologies, MRX Revelation; Chantilly, Va., USA). Backgrounds were subtracted at 630 nm. IC50 values were calculated by non-linear regression analysis using Prism software.

[2] = test system: MDA-MB-231 (ER-negative) human breast cancer cell line; experiment: MTT cell viability assay, MDA-MB-231 cells; details: for cytotoxic activity: 72 h, versus Ospemifene and Tamoxifen; for IC50: Homo sapiens; for anticancer activity in initial screening: 0.5-25 μM, 48 h (FIG. 3)
Experimental: as §2, §3

MMP-9 = experiment: Western blot, MMP-9 expression in breast cancer cells; assay type: cell-based, human; details: MDA-MB-231 and MCF-7 cells, 24 h
Experimental: (§1) To determine the effect of novel triarylethylene derivatives on proteins involved in metastasis, and adhesion, whole-cell extracts were prepared by subjecting cells to lysis in RIPA buffer supplemented with protease and phosphatase inhibitor cocktails using previously described methods (Pandey et al., 2014, Exp. Hematol. 42:883-896). Lysates were spun at 15,000 rpm for 10 minutes to remove insoluble material. Supernatant were collected and kept at −80° C. Lysates were resolved by SDS-PAGE. After electrophoresis, the proteins were electro-transferred to PVDF membranes, blotted with the relevant antibodies, and detected by enhanced chemo-luminescence reagent.

caveolin = experiment: Western blot, caveolin expression in breast cancer cells; assay type: cell-based, human; details: MDA-MB-231 and MCF-7 cells, 24 h
Experimental: as §1

c-Myc = experiment: Western blot, c-Myc expression in breast cancer cells; assay type: cell-based, human; details: MDA-MB-231 and MCF-7 cells, 24 h
Experimental: as §1

[3] = test system: normal mouse embryonic fibroblast (MEF) cells; experiment: MTT cell viability assay, normal MEF cells; details: 48 h
Experimental: as §2

[4] = MCF7, 72 h, read-out: MCF-7 IC50
[5] = MDA-MB-231, 72 h, read-out: MDA-MB-231 IC50
[6] = MCF7, 48 h, read-out: MCF-7 (ER positive) IC50
[7] = MCF7, 96 h, read-out: MCF-7 (ER positive) IC50
[8] = MDA-MB-231, 48 h, read-out: MDA-MB-231 (ER− negative) IC50
[9] = MDA-MB-231, 96 h, read-out: MDA-MB-231 (ER− negative) IC50

- IC50 [1, 4]: > 50 µM
- IC50 [2, 5]: 42.8 ± 12.2 µM
- melting point: 139 to 141 °C
Compound: COc1ccc(/C(=C(/CCNC(=O)N2CCOCC2)c2ccccc2)c2ccccc2)cc1 [Compound 18, (Z)—N-(4-(4-Methoxyphenyl)-3,4-diphenylbut-3-enyl)morpholine-4-carboxamide]

- IC50 [1, 4]: 43.4 ± 7.5 µM
- IC50 [2, 5]: 20 ± 9.8 µM
- melting point: 118.4 to 119.3 °C
Compound: COc1ccc(/C(=C(/CCNC(=O)C(=O)N2CCOCC2)c2ccccc2)c2ccccc2)cc1 [Compound 25, (Z)—N-(4-(4-Methoxyphenyl)-3,4-diphenylbut-3-enyl)-2-morpholino-2-oxoacetamide]
- cytotoxic activity ([2]; MTT): good activity

- IC50 [1, 4]: > 50 µM
- IC50 [2, 5]: > 50 µM
- melting point: 194.2 to 195.4 °C
Compound: COc1ccc(/C(=C(/CCNC(=O)N2CCCC2)c2ccccc2)c2ccccc2)cc1 [Compound 21, (Z)—N-(4-(4-Methoxyphenyl)-3,4-diphenylbut-3-enyl)pyrrolidine-1-carboxamide]

- melting point: 129 to 131 °C
Compound: COc1ccc(/C(=C(/CCN)c2ccccc2)c2ccccc2)cc1 [Compound 13, (Z)-4-(4-Methoxyphenyl)-3,4-diphenylbut-3-en-1-amine]
- effectiveness versus Ospemifene and Tamoxifen ([1]; MTT, 0.5-100 μM, 48 h (FIG. 28B)): more effective
- cytotoxic activity ([1]; MTT): remarkable activity
- effectiveness versus Ospemifene and Tamoxifen ([2]; MTT, 0.5-100 μM, 48 h (FIG. 28A)): more effective
- cytotoxic activity ([2]; MTT): remarkable activity
- expression of MMP-9 (MMP-9): inhibited the expression
- expression of caveolin (caveolin): inhibited the expression
- expression of c-Myc (c-Myc): inhibited the expression

- melting point: 126 to 128 °C
Compound: COc1ccc(/C(=C(/CCN=[N+]=[N-])c2ccccc2)c2ccccc2)cc1 [Compound 12, (Z)-(4-Azido-1-(4-methoxyphenyl)but-1-ene-1,2-diyl)dibenzene]

- IC50 [1, 4]: > 50 µM
- IC50 [2, 5]: > 50 µM
- melting point: 197 to 198 °C
Compound: COc1ccc(/C(=C(/CCNC(=O)N2CCCCC2)c2ccccc2)c2ccccc2)cc1 [Compound 20, (Z)—N-(4-(4-Methoxyphenyl)-3,4-diphenylbut-3-enyl)piperidine-1-carboxamide]

- IC50 [1, 4]: > 50 µM
- IC50 [2, 5]: > 50 µM
Compound: CCOC(=O)C(=O)NCC/C(=C(\c1ccccc1)c1ccc(OC)cc1)c1ccccc1 [Compound 15, (Z)-Ethyl-2-(4-(4-methoxyphenyl)-3,4-diphenylbut-3-enylamino)-2-oxoacetate]

- IC50 [1, 4]: > 50 µM
- IC50 [2, 5]: 40.7 ± 12.2 µM
- melting point: 159 to 160 °C
Compound: CCN(CC)C(=O)NCC/C(=C(\c1ccccc1)c1ccc(OC)cc1)c1ccccc1 [Compound 19, (Z)-1,1-Diethyl-3-(4-(4-methoxyphenyl)-3,4-diphenylbut-3-enyl)urea]

- IC50 [1, 4]: > 50 µM
- IC50 [2, 5]: 48.6 ± 14.5 µM
- melting point: 151 to 152 °C
Compound: COc1ccc(/C(=C(/CCNC(=O)C(=O)N2CCCC2)c2ccccc2)c2ccccc2)cc1 [Compound 24, (Z)—N-(4-(4-Methoxyphenyl)-3,4-diphenylbut-3-enyl)-2-oxo-2-(pyrrolidin-1-yl)acetamide]

- melting point: 87 to 89 °C
Compound: COc1ccc(/C(=C(/CCCl)c2ccccc2)c2ccccc2)cc1 [Compound 11, (Z)-(4-Chloro-1-(4-methoxyphenyl)but-1-ene-1,2-diyl)dibenzene]

- IC50 [1, 4]: > 50 µM
- IC50 [2, 5]: > 50 µM
- melting point: 125 to 127 °C
Compound: COc1ccc(/C(=C(/CCNC(=O)C(=O)N2CCCCC2)c2ccccc2)c2ccccc2)cc1 [Compound 26, (Z)—N-(4-(4-Methoxyphenyl)-3,4-diphenylbut-3-enyl)-2-oxo-2-(piperidin-1-yl)acetamide]

More lines, now with the values behind:

Compound: (Z)-Ethyl-2-(4-(4-methoxyphenyl)-3,4-diphenylbut-3-enylamino)-2-oxoacetate [Compound 15]
- cytotoxic activity ([1]; MTT): much more effective than the standards
- cytotoxic activity ([2]; MTT): much more effective than the standards
- expression of MMP-9 (MMP-9): modulated the expression

Compound: COc1ccc(/C(=C(/CCNC(=O)NCc2ccccc2)c2ccccc2)c2ccccc2)cc1 [Compound 16, (Z)-1-Benzyl-3-(4-(4-methoxyphenyl)-3,4-diphenylbut-3-enyl) urea]
- IC50 [1, 4]: > 50 µM
- IC50 [2, 5]: > 50 µM
- melting point: 158 to 160 °C

Compound: OCCOc1ccc(/C(=C(/CCCl)c2ccccc2)c2ccccc2)cc1 [Ospemifene, (Z)-2-{4-(4-chloro-1,2-diphenylbut-1-enyl)phenoxy}ethanol, reference compound]
- IC50 [1, 6]: > 100 µM
- IC50 [1, 7]: 55 µM
- cell death ([1]; initial screening, 25 μM): ~40%
- IC50 [2, 8]: > 100 µM
- IC50 [2, 9]: > 100 µM
- toxicity to normal MEF cells [3]: non-toxic

Compound: COc1ccc(/C(=C(/CCNC(=O)C(=O)NCc2ccccc2)c2ccccc2)c2ccccc2)cc1 [Compound 22, (Z)—N1-Benzyl-N2-(4-(4-methoxyphenyl)-3,4-diphenylbut-3-enyl)oxalamide]
- IC50 [1, 4]: > 50 µM
- IC50 [2, 5]: 11.5 ± 3.8 µM
- cytotoxic activity ([2]; MTT): selectively cytotoxic
- expression of MMP-9 (MMP-9): inhibited the expression
- melting point: 169 to 172 °C
- expression of caveolin (caveolin): did not inhibit the expression
- expression of c-Myc (c-Myc): inhibited the expression

Compound: CS(=O)(=O)OCCOc1ccc(/C(=C(/CCCl)c2ccccc2)c2ccccc2)cc1 [Compound 2, (Z)-2-{4-(4-chloro-1,2-diphenylbut-1-enyl}phenoxy) ethyl methanesulfonate]
- anticancer activity in initial screening [1]: inactive
- anticancer activity in initial screening [2]: inactive
- melting point: 84 to 86 °C

Compound: COc1ccc(/C(=C(/CCNC(=O)C(=O)NC2CCCCC2)c2ccccc2)c2ccccc2)cc1 [Compound 23, (Z)—N1-Cyclohexyl-N2-(4-(4-methoxyphenyl)-3,4-diphenylbut-3-enyl)oxalamide]
- IC50 [1, 4]: 12.1 ± 4.5 µM
- cytotoxic activity ([1]; MTT): remarkable activity
- IC50 [2, 5]: 12.2 ± 5.3 µM
- cytotoxic activity ([2]; MTT): remarkable activity
- expression of MMP-9 (MMP-9): inhibited the expression
- melting point: 198 to 199 °C
- expression of caveolin (caveolin): did not inhibit the expression
- expression of c-Myc (c-Myc): inhibited the expression

Compound: (Z)-Phenyl-4-(4-methoxyphenyl)-3,4-diphenylbut-3-enylcarbamate [Compound 14]
- cytotoxic activity ([1]; MTT): much more effective than the standards
- cytotoxic activity ([2]; MTT): much more effective than the standards
- expression of MMP-9 (MMP-9): modulated the expression

Compound: [N-]=[N+]=NCCOc1ccc(/C(=C(/CCCl)c2ccccc2)c2ccccc2)cc1 [Compound 3, (Z)-[1-{4-(2-azidoethoxy)phenyl}-4-chlorobut-1-ene-1,2-diyl]dibenzene]
- anticancer activity in initial screening [1]: inactive
- anticancer activity in initial screening [2]: inactive
- melting point: 88 to 90 °C

Compound: [N-]=[N+]=NCCOc1ccc(/C(=C(/CCN=[N+]=[N-])c2ccccc2)c2ccccc2)cc1 [Compound 5, (Z)-[4-azido-1-{4-(2-azidoethoxy)phenyl}but-1-ene-1,2-diyl]dibenzene]
- anticancer activity in initial screening [1]: ineffective
- anticancer activity in initial screening [2]: ineffective

Compound: O=C(NCC/C(=C(\c1ccccc1)c1ccc(OCCO)cc1)c1ccccc1)Oc1ccccc1 [Compound 8, (Z)-Phenyl 4-{4-(2-hydroxyethoxy)phenyl}-3,4-diphenylbut-3-enylcarbamate]
- anticancer activity in initial screening [1]: more potent than Ospemifene
- IC50 [1, 6]: 76 µM
- IC50 [1, 7]: 50 µM
- anticancer activity in initial screening [2]: more potent than Ospemifene
- IC50 [2, 8]: > 100 µM
- IC50 [2, 9]: 62.3 µM
- melting point: 121 to 123 °C

Compound: [N-]=[N+]=NCC/C(=C(\c1ccccc1)c1ccc(OCCO)cc1)c1ccccc1 [Compound 4, (Z)-2-{4-(4-azido-1,2-diphenylbut-1-enyl)phenoxy}ethanol]
- anticancer activity in initial screening [1]: activity similar to Ospemifene
- IC50 [1, 6]: > 100 µM
- IC50 [1, 7]: > 100 µM
- IC50 [2, 8]: > 100 µM
- IC50 [2, 9]: > 100 µM
- melting point: 126 to 128 °C

Compound: COc1ccc(/C(=C(/CCNC(=O)NC2CCCCC2)c2ccccc2)c2ccccc2)cc1 [Compound 17, (Z)-1-Cyclohexyl-3-(4-(4-methoxyphenyl)-3,4-diphenylbut-3-enyl) urea]
- IC50 [1, 4]: 37.2 ± 13.7 µM
- IC50 [2, 5]: > 50 µM
- melting point: 168 to 170 °C
